According to patent US6448268B1, “Aryl-{4-fluoro-4-[(2-pyridin-2-yl-ethylamino)-methyl]-piperidin-1-yl}-methanone derivatives as 5-ht1 receptor antagonists” (Pierre Fabre Medicament, priority 1998, dated 2002):
Counter-ions that a name gives are not always drawn.

Experiments:
5-HT1A receptor [1] = target: T1, 5-HT1A receptor (Rattus norvegicus, UniProt P19327); test: Affinity for 5-HT1A receptors by displacement of (3H)8-OH-DPAT; assay type: binding; set-up: from tissue; host or cells: rat cerebral cortex membrane homogenate; details: for Ki: rat cerebral cortex, (3H)8-OH-DPAT displacement, read-out: pKi 5-HT1A (converted); for Selectivity 5-HT1A/D2: ratio of the affinity constants (Ki) D2/Ki (5-HT1A)
T1 sequence (P19327 1-422): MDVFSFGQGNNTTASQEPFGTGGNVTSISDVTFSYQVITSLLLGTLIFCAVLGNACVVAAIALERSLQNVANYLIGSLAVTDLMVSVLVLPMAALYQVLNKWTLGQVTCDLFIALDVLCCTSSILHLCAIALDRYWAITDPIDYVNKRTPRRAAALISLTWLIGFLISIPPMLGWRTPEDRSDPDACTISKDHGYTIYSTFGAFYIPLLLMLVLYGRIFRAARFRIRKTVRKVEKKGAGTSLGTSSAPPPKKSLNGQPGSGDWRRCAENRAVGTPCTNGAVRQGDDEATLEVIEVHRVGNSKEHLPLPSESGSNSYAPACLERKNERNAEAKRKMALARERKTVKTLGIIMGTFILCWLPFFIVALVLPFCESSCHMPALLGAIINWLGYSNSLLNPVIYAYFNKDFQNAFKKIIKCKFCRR
Experimental: 1—Measurement of the Affinity of the Compounds of the Invention for the 5-HT1A Receptors
The in vitro affinity of the compounds of the invention for 5-HT1A receptors was determined by measuring the displacement of (^3H)8-OH-DPAT (TRK 850; 160-240 Ci/mmol).
The study of the binding to the 5-HT1A receptor is carried out as described by Sleight and Peroutka (Naunyn-Schmiedeberg's Arch. Pharmaco., 1991, 343, 106). Rat cerebral cortices are used for these experiments. After thawing the brain in 50 mmol Tris-HCl buffer pH=7.40 at 25° C., the cerebral cortex is removed and homogenized in 20 volumes of buffer maintained at 4°C. The homogenate is centrifuged at 39,000×g for 10 minutes and the centrifugation pellet is suspended in the same volume of buffer and centrifuged again. After resuspending under the same conditions, the homogenate is incubated for 10 minutes at 37° C. and then centrifuged again. The final pellet is suspended in cold 50 mmol Tris-HCl reaction buffer, pH=7.40 at 25° C., containing 10 mmol of pargyline, 4 mmol of CaCl2 and 0.10% ascorbic acid. The final concentration of tissue in the incubation medium is 10 mg/tube.
The reaction tubes contain 0.10 ml of (^3H)8-OH-DPAT ([…]), 0.10 ml of test product 6-7 concentrations and 0.80 ml of tissue. The nonspecific binding is defined using 10 mmol of 5-HT. The reaction tubes are incubated at 23° C. for 30 minutes and their contents are then rapidly filtered under vacuum through Whatman GF/B filters and the tubes are rinsed with twice 5 ml of 50 mmol Tris-HCl buffer, pH=7.4 at 25° C. The radioactivity collected on the filter is analyzed by liquid scintillation by adding 4 ml of liquid scintillant (Emulsifier Safe, Packard). All the experiments are carried out in triplicate.
The inhibition constants (Ki) of the products of the invention are estimated from the displacement experiments using the nonlinear regression program RADLIG version 4 from EBDA (Equilibrium Binding Data Analysis) (Biosoft, Cambridge, UK, McPherson, 1985). The dissociation constants of the radioactive ligands used in the calculations are […] for (^3H)8-OH-DPAT and 0.036 mmol for (^3H)YM-09151-2. The pKi (−logKi) values are given in the form of the mean±SEM of at least 3 experiments.

5-HT1A receptor [2] = target: T1, 5-HT1A receptor; test: 5-HT1A receptor agonist activity in vivo: lower lip retraction (LLR) after oral administration; set-up: Male Sprague Dawley rats (ICO:OFAD [IOPS], Iffa Credo, France); from tissue; host or cells: whole animal, male Sprague Dawley rats, oral dosing; details: rats, observed t55 to t65 min, doses as base weight, read-out: LLR p.o. ED50
From the text: 3—Evaluation of the 5-HT1A Receptor Agonist Activity of the Compounds of the Invention In Vivo.
Male Sprague Dawley rats (ICO:OFAD [IOPS], Iffa Credo, France), weighing 160-180 g on arrival and 180-200 g at the start of the tests, are used. The animals are placed in quarantine for 4 to 8 days with free access to standardized laboratory food, before being used in the experiments. The animals are housed individually in plastic cages on cage holders (28 cm×21 cm×18 cm) with a grille floor (RC Iffa Credo), 24 hours before the tests. By means of an automatic dispenser, water filtered through a 0.22 μm filter is freely available. The quarantine area and the experiment laboratory are air conditioned (temperature: 22±1° C.; relative humidity: 55±5%) and illuminated from 7 a.m. to 7 p.m. All the rats are treated according to the ethics for laboratory animals (Guide for the Care and Use of Laboratory Animals, U.S. Department of Agriculture, Public Health Service, National Institutes of Health publication No. 85-23, Revised 1985) and the protocol (No. 15) is carried out in accordance with the recommendations of the local research animals ethics committee. […]
The behavior of the animal is observed for a period of 10 minutes each, centered at t60 minutes, after oral administration. […] The products are administered in a volume of 10 ml/kg and the doses are expressed as base weight. […]

melting point [°C]	Ki (5-HT1A receptor [1]) [nM]	Selectivity 5-HT1A/D2 (5-HT1A receptor [1])	ED50 (5-HT1A receptor [2]) [mg/kg]	Compound
172 to 174	–	–	–	O=C(c1ccc(F)c(Cl)c1)N1CCC(F)(CNCCc2ccccn2)CC1 (as salt: oxalate) [Example 1, (3-Chloro-4-fluorophenyl){4-fluoro-4-[(2-pyrid-2-ylethylamino)methyl]-l-piperidyl}methanone]
192 to 194	–	–	–	O=C(c1ccc(Cl)c(Cl)c1)N1CCC(F)(CNCCc2ccccn2)CC1 (as salt: oxalate) [Example 2, (3,4-Dichlorophenyl){4-fluoro-4-[(2-pyrid-2-ylethylamino)methyl]-1-piperidyl}methanone]
–	0.155	4 266	0.31	O=C(c1ccc(F)c(Cl)c1)N1CCC(F)(CNCCc2ccccn2)CC1 [Example 1, (3-Chloro-4-fluorophenyl){4-fluoro-4-[(2-pyrid-2-ylethylamino)methyl]-l-piperidyl}methanone]
–	0.38	1 318	0.31	O=C(c1ccc(Cl)c(Cl)c1)N1CCC(F)(CNCCc2ccccn2)CC1 [Example 2, (3,4-Dichlorophenyl){4-fluoro-4-[(2-pyrid-2-ylethylamino)methyl]-1-piperidyl}methanone]
